From article PMC5775428, “Towards an experimental classification system for membrane active peptides” (Scientific Reports, 2018)
Read-outs that look alike come from different tables or passages of the source.

Key:
Escherichia coli = settings: Escherichia coli; for Minimum inhibitory concentration, Average: average of triplicates
Method: (§1) Antimicrobial activity was tested against three categories of human and plant pathogenic microorganisms: Gram-positive (Bacillus subtilis, Bacillus cereus, Staphylococcus aureus), Gram-negative (Escherichia coli, Pseudomonas aeruginosa, Erwinia carotovora, Pseudomonas syringae pv. tabaci, Xanthomonas campestris pv. citri) and yeasts (Candida albicans, Cryptococcus neoformans), as previously reported. […] The full list of peptide MICs was published in an accompanying paper, and is available in the current publication as supplementary dataset (Supplementary dataset 01).
(§2) The determination of the minimum inhibitory concentration (MIC) of peptides was performed as described in “Encrypted Antimicrobial Peptides from Plant Proteins”[7]. Briefly, MICs were determined following protocols M7-A10 and M27-A3 from Clinical & Laboratory Standards Institute (CLSI) for bacteria and yeasts, respectively. Different concentrations of IAPs (0.5 to 256 μM) were tested against several microorganisms in a final volume of 100 µL. Three biological repetitions, with 2 technical replicates each, were performed for each test, on polystyrene flat-bottom 96 wells microplates. The minimum inhibitory concentration (MIC) was defined as the concentration at which no cells were detected when visualized by optical microscopy. Please refer to the literature[7] for further details of the microbiological assays.

Staphylococcus aureus = settings: Staphylococcus aureus; for Minimum inhibitory concentration, Average: average of triplicates
Method: as §1, §2

Pseudomonas aeruginosa = settings: Pseudomonas aeruginosa; for Minimum inhibitory concentration, Average: average of triplicates
Method: as §1, §2

Candida albicans = settings: Candida albicans; for Minimum inhibitory concentration, Average: average of triplicates
Method: as §1, §2

[1] = CLSI M27-A3, 0.5 to 256 μM tested, triplicate 1, also published in ref 7

Row | Sequence | Minimum inhibitory concentration (Escherichia coli; CLSI M7-A10, triplicate 1) [µM] | Minimum inhibitory concentration, Average (Escherichia coli) [µM] | Minimum inhibitory concentration (Escherichia coli; triplicate 2) [µM] | Minimum inhibitory concentration (Escherichia coli; triplicate 3) [µM] | Minimum inhibitory concentration (Staphylococcus aureus; CLSI M7-A10, triplicate 1) [µM] | Minimum inhibitory concentration, Average (Staphylococcus aureus) [µM] | Minimum inhibitory concentration (Staphylococcus aureus; triplicate 2) [µM] | Minimum inhibitory concentration (Staphylococcus aureus; triplicate 3) [µM] | Minimum inhibitory concentration (Pseudomonas aeruginosa; CLSI M7-A10, triplicate 1) [µM] | Minimum inhibitory concentration, Average (Pseudomonas aeruginosa) [µM] | Minimum inhibitory concentration (Pseudomonas aeruginosa; triplicate 2) [µM] | Minimum inhibitory concentration (Pseudomonas aeruginosa; triplicate 3) [µM] | Minimum inhibitory concentration (Candida albicans; [1]) [µM] | Minimum inhibitory concentration, Average (Candida albicans) [µM] | Minimum inhibitory concentration (Candida albicans; triplicate 2) [µM] | Minimum inhibitory concentration (Candida albicans; triplicate 3) [µM]
1 | FLSLIPHAINAVSTLVHHF [PS-2, reference compound] | 8 | 8.0 | 8 | 8 | 8 | 8.0 | 8 | 8 | 512 | 512.0 | 512 | 512 | 32 | 32.0 | 32 | 32
2 | GIGDILKNLAKAAGKAALHAVGESL [HSP-4, Hylaseptin-4, reference compound] | 8 | 8.0 | 8 | 8 | 8 | 8.0 | 8 | 8 | 16 | 16.0 | 16 | 16 | 8 | 8.0 | 8 | 8
3 | GIGKFLHSAKKFGKAFVGEIMNS [Mag-2a, Magainin-2a, reference compound] | 8 | 8.0 | 8 | 8 | 512 | 512.0 | 512 | 512 | 512 | 512.0 | 512 | 512 | 64 | 64.0 | 64 | 64
4 | GLKDMIKNLAKEAAVKLAGAVINKFSPQPQ [Nat-1, Nattererin-1, reference compound] | 8 | 8.0 | 8 | 8 | 16 | 26.7 | 32 | 32 | 32 | 32.0 | 32 | 32 | 16 | 16.0 | 16 | 16
